From patent US20130042333A1, “MARKERS FOR CANCER PROGNOSIS AND THERAPY AND METHODS OF USE” (priority 2011, published 2013)

Legend:
[1] = test system: HBCx-6 breast cancer xenograft; test: Tumor regression-regrowth assay, HBCx-6 xenograft; assay type: in vivo, human tumor in Swiss nude mice; details: HBCx-6 combination study; A/C 2/100 mg/kg; AZD2281 50 mg/kg i.p.
From the text: (§1) Tumor xenografts were generated by direct subcutaneous grafting into immunodeficient mice of human tumor surgical samples with informed written consent of the patients and maintained by serial transplantation. […] They are thus clinically relevant tumor models, as opposed to xenografts produced from tumor cell lines that have been obtained by in vitro culture and often passaged for many years (Fiebig, H. H. et al. Eur J Cancer 40, 802-820, 2004; Marangoni E., Vincent-Salomon A., Auger N. et al. Clin Cancer Res. 2007 Jul. 1; 13:3989-98).
(§2) Chemotherapeutic drugs were administered by intraperitoneal route according to the following doses and schedules: adriamycin, 2 mg/kg, q3wk (Doxorubicin®, Teva Pharmaceuticals, France) and Cyclophosphamide, 100 mg/kg, q3wk (Endoxan®, Baxter, France). […] Tumor volume was evaluated by measuring two perpendicular diameters of the tumor, with a calliper, biweekly during the treatment period and once a week during the follow-up period. […] Mice were ethically sacrificed when the tumor volume reached 2000 mm3 Individual tumor growth delays (TGD) is calculated as the time in days required for individual tumors to reach 3- to 5-fold the initial median tumor volume. The tumor growth delay index (TGDI) is calculated as the median growth delay in the treated group divided by the median growth delay in the control group. […]

[2] = test system: SC61 small-cell lung cancer xenograft; test: Tumor regression-regrowth assay, SC61 xenograft; assay type: in vivo, human tumor in immunodeficient mice; details: x1 cycle
From the text: as §1
as §2, with “France). Irinotecan (Campto®, Pfizer Holding France), 50 mg/kg, q4dx4. Etoposide 12 mg/kg, qdx3. Ifosfamide 90 mg/kg, qdx3. bPARP inhibitor (AZD2281, Sequoia Research Products, UK) at 50 mg/kg (ip; qdx14). A second treatment cycle was performed with PARP inhibitor at 50 mg/kg (ip qdx5) during the nodule phase.” for “France).”, “group. The percentage ratio between the mean tumor volume of a treated group (T) and the mean tumor volume of the control group (C) is calculated.” for “group.”

[3] = test system: HBCx-17 breast tumor xenograft; test: Tumor regression-regrowth assay, HBCx-17 xenograft; assay type: in vivo, human tumor in Swiss nude mice; details: A/C 2/100 or Cap 540 mg/kg, x2 cycles
From the text: as §1
(§3) Chemotherapeutic drugs were administered by intraperitoneal route according to the following doses and schedules: adriamycin, 2 mg/kg, q3wk (Doxorubicin®, Teva Pharmaceuticals, France) and Cyclophosphamide, 100 mg/kg, q3wk (Endoxan®, Baxter, France). Irinotecan (Campto®, Pfizer Holding France), 50 mg/kg, q4dx4. Etoposide 12 mg/kg, qdx3. Ifosfamide 90 mg/kg, qdx3. bPARP inhibitor (AZD2281, Sequoia Research Products, UK) at 50 mg/kg (ip; qdx14). A second treatment cycle was performed with PARP inhibitor at 50 mg/kg (ip qdx5) during the nodule phase. Other pharmacological inhibitors are tested and administrated at the nodule phase: JAK1/2 Inhibitor (CP-690550) at 15 mg/kg (po qdx14), Epigallocatechin gallate (ECGC) (Sequoia Research Products, UK) at 30 mg/kg (ip qdx28), HDAC inhibitor (Trichostatine A), Retinoic acid at 50 mg/kg (ip qdx28) (Sigma-Aldrich, France). Breast tumor xenograft models were transplanted into 5-week old female Swiss nude mice, as described above, one tumor being transplanted into 5-10 recipients. When tumors reached a volume of 60-250 mm3, mice were individually identified and randomly assigned to the control or treated groups (12 to 20 mice per group). Tumor volume was evaluated by measuring two perpendicular diameters of the tumor, with a calliper, biweekly during the treatment period and once a week during the follow-up period. The formula TV (mm3)=[length (mm)×width (mm)2]/2 was used, where the length and the width were the longest and the shortest diameters of the tumor, respectively. All animals were weighted biweekly during the treatment period and the follow-up period. Mice were ethically sacrificed when the tumor volume reached 2000 mm3 Individual tumor growth delays (TGD) is calculated as the time in days required for individual tumors to reach 3- to 5-fold the initial median tumor volume. The tumor growth delay index (TGDI) is calculated as the median growth delay in the treated group divided by the median growth delay in the control group. The percentage ratio between the mean tumor volume of a treated group (T) and the mean tumor volume of the control group (C) is calculated.
(§4) Tumors were collected from 5 independent mice at different time points: prior to treatment (=controls with volume<200 mm3); post-treatment residual tumors (=nodules with volume<32 mm3 until minimal palpation); recurrent tumors (=regrowth with volume>62.5 mm3) Tumors or nodules were processed for (1) FFPE (formalin-fixed paraffin-embedded) or for (2) snap frozen samples: samples were cut into 3-4 mm pieces (at least 3 fragments) and snap-frozen in liquid nitrogen, then transferred to −80° C. for storage. Samples were allocated for histology, microdissection and RNA analyses.
(§5) Three categories of responders were defined based on the TGDI and T/C values.

[4] = test system: HBCx-39 breast tumor xenograft; test: Tumor regression-regrowth assay, HBCx-39 xenograft; assay type: in vivo, human tumor in Swiss nude mice; details: Cap 540 mg/kg, x2 cycles
From the text: as §1, §3, §4, §5

[5] = test system: TC71 colorectal tumor xenograft; test: Tumor regression-regrowth assay, TC71 xenograft; assay type: in vivo, human tumor in immunodeficient mice; details: x1 cycle, mg/kg: Ox 10, Cap 540, I 50, B 5, Cet 5
From the text: as §1, §3, §4, §5

[6] = test system: TC305 colorectal tumor xenograft; test: Tumor regression-regrowth assay, TC305 xenograft; assay type: in vivo, human tumor in immunodeficient mice; details: x1 cycle, mg/kg: Ox 10, Cap 540, I 50, B 5, Cet 5
From the text: as §1, §3, §4, §5

[7] = test system: HBCx-24 breast tumor xenograft; test: Tumor regression-regrowth assay, HBCx-24 xenograft; assay type: in vivo, human tumor in Swiss nude mice; details: Doc 20 mg/kg, x2 cycles
From the text: as §1, §3, §4, §5

[8] = test system: IC20DAN (a primary NSCLC tumor xenograft); test: Tumor regression-regrowth assay, IC20DAN xenograft; assay type: in vivo, human tumor in immunodeficient mice; details: Doc 20 mg/kg, x1 cycle
From the text: as §1, §3, §4, §5

[9] = test system: TC301 colorectal cancer xenograft; test: Tumor regression-regrowth assay, TC301 xenograft; assay type: in vivo, human tumor in immunodeficient mice; details: I 40 mg/kg, x1 cycle
From the text: as §1
as §3, with “Irinotecan (Campto®, Pfizer Holding France), 50 mg/kg, q4dx4.” left out, “calculated. […]” for “calculated.”

[10] = test system: 21 genes implicated in IFN/Stat pathway; test: Real-time quantitative RT-PCR of the 21-gene IFN/Stat signature in tumor xenografts after chemotherapy; assay type: in vivo, human tumor in immunodeficient mice; details: colorectal tumor xenograft (TC301)
Protocol: Samples were allocated for histology, microdissection and RNA analyses.
Total RNA amount was measured using the Nanodrop (ND1000, ThermoFisher) and RNA quality was assessed with the Agilent 2100 Bioanalyzer onto RNA NanoChip (Agilent Technology, Massy, France). Three samples from each condition were pooled. Two μg of total RNA were reverse-transcribed with the First strand cDNA synthesis kit (Roche Applied Science, Switzerland) according to manufacturer's instructions. For the priming method, a combination of ¾ random hexamer primers and ¼ anchored-oligo(dT)18 primers was used to avoid 3′-prime bias in cDNAs. qPCR analyses of gene transcripts was done with 5 ng of RNA for each reaction. Three housekeeping genes were used as references for relative quantification of target genes expression. […]
Validation of the microarray gene and microRNA expression data was performed by qPCR using primers specific for human sequences (eg. non-cross-reactive with murine sequences). The effect of chemotherapy on the activation of 21 genes implicated in IFN/Stat pathway (IFIT1, IFITM1, IRF9, IFI6, IFI44, IFI44L, OAS1, OAS2, LAMP3, MX1, PARP9, PARP12, SAMD9, SAMD9L, BST2, DDX60, CLDN1, STAT1, STAT2, UBE2L6, ZNFX1) and two miRNA (miR-142-3p and miR150) was analyzed in responder versus non-responder tumor models. […]

[11] = test system: ODA14 RAV glioma xenograft; test: Tumor regression-regrowth assay, ODA14 RAV xenograft; assay type: in vivo, human tumor in immunodeficient mice; details: TMZ 42 mg/kg, x1 cycle
From the text: as §1, §3, §4, §5

[12] = CDDP 2/12 or VP16/IFO 12/90 mg/kg

Structure (SMILES): O=C(c1cc(Cc2n[nH]c(=O)c3ccccc23)ccc1F)N1CCN(C(=O)C2CC2)CC1 [AZD2281]
- anti-tumor activity [1]: significant anti-tumor activity
- tumors showing complete tumor regression [1]: 2 out of 7

Structure (SMILES): [NH2][Pt]([NH2])([Cl])[Cl] [CDDP, cisplatin]
- % Tumor Relapse ([2]; CDDP 2/12 mg/kg): 100%
- % Nodules [2, 12]: 23%
- Median Nodule Apparition Time [2, 12]: 13

Structure (SMILES): CCCCCOC(=O)Nc1nc(=O)n([C@@H]2O[C@H](C)[C@@H](O)[C@H]2O)cc1F [Cap, capecitabine]
- % Nodules [3]: 30%
- % Tumor Relapse [3]: 100%
- Median Nodule Apparition Time [3]: 50
- Median Time of Relapse [3]: 4
- T/C % D21 [3]: 48%
- T/C % D42 [3]: 12%
- TGDI [3]: >2.81
- median TGD × 5 [3]: >64 days
- % Nodules [4]: 56%
- % Tumor Relapse [4]: 100%
- Median Nodule Apparition Time [4]: 17
- Median Time of Relapse [4]: 63
- T/C % D21 [4]: 11%
- TGDI [4]: >4.54
- median TGD × 5 [4]: >84 days
- % Nodules [5]: 100%
- % Tumor Relapse [5]: 100%
- Median Nodule Apparition Time [5]: 22
- Median Time of Relapse [5]: 36
- T/C % D21 [5]: 5%
- TGDI [5]: 5.11
- median TGD × 5 [5]: 66.48 days
- % Nodules [6]: 33%
- % Tumor Relapse [6]: 100%
- Median Nodule Apparition Time [6]: 7
- Median Time of Relapse [6]: 11
- T/C % D21 [6]: 40%
- TGDI [6]: 1.74
- median TGD × 5 [6]: 27.87 days

Structure (SMILES): CC(=O)O[C@@]12CO[C@@H]1C[C@H](O)[C@@]1(C)C(=O)[C@H](O)C3=C(C)[C@@H](OC(=O)[C@H](O)[C@@H](NC(=O)OC(C)(C)C)c4ccccc4)C[C@@](O)([C@@H](OC(=O)c4ccccc4)[C@H]21)C3(C)C [Doc, docetaxel]
- % Nodules [7]: 70%
- % Tumor Relapse [7]: 71.4%
- Median Nodule Apparition Time [7]: 10
- Median Time of Relapse [7]: 14
- T/C % D21 [7]: 21%
- TGDI [7]: 2.39
- median TGD × 5 [7]: 35.44 days
- % Nodules [8]: 60%
- % Tumor Relapse [8]: 100%
- Median Nodule Apparition Time [8]: 11
- Median Time of Relapse [8]: 9
- TGDI [8]: >4.8
- median TGD × 5 [8]: >24 days

Structure (SMILES): CCc1c2c(nc3ccc(OC(=O)N4CCC(N5CCCCC5)CC4)cc13)-c1cc3c(c(=O)n1C2)COC(=O)[C@]3(O)CC [I, Irinotecan]
- % Nodules [9]: 43%
- % Tumor Relapse [9]: 100%
- Median Nodule Apparition Time [9]: 26
- Median Time of Relapse [9]: 18
- expression of IFN/Stat gene signature in residual nodules (qPCR) [10]: gene expression was globally increased

Structure (SMILES): Cn1nnc2c(C(N)=O)ncn2c1=O [TMZ]
- % Nodules [11]: 100%
- % Tumor Relapse [11]: 100%
- Median Nodule Apparition Time [11]: 7
- Median Time of Relapse [11]: 21
- TGDI [11]: 6.66
- median TGD × 5 [11]: 46.62 days
